[invAb] = inverted abasic unit; m = 2'-O-methyl; r = 2'-OH (RNA); f = 2'-fluoro
Legend:
STAT3 mRNA = assay: Effect of STAT1 siRNAs on expression of STAT3 mRNA in A549 cells (quantitative RT-PCR); type: cell-based, human; conditions: 1 nM siRNA, normalized to GAPDH
From the text: (§1) A series of probes and primers were used to detect the various mRNA transcripts of the genes of β-Actin (human cell line only), and of STAT1 and GAPDH in mouse and human cell lines. All Taqman probes and primers for the experiments here-in described were supplied as pre-validated sets by Applied Biosystems, Inc. (see Table 2).
The levels of expression of STAT3 were normalized to the level of GAPDH. There was no significant effect (p>0.05) of treatment with any of the lead STAT1 siRNAs on the expression human or mouse STAT3 mRNA at 1 nM (10 to 100 times the IC50s of the siRNAs).

STAT1 mouse mRNA = assay: Initial screen of siNAs: STAT1 mRNA knock-down in NIH 3T3 cells (96-well transfection, Taqman RT-PCR); type: cell-based; conditions: 10 nM siNA, 24 hrs, normalized against GAPDH, average of 2 experiments
Protocol: NIH 3T3 (mouse; ATCC cat# CRL-1658): Cells were cultured at 37° C. in the presence of 5% CO2 and grown in Dulbecco's modified Eagle's medium (DMEM) with 4 mM L-glutamine adjusted to contain 1.5 g/L sodium bicarbonate and 4.5 g/L glucose and supplemented with fetal bovine serum at a final concentration of 10%, 100 μg/mL of streptomycin, and 100 U/mL penicillin.
(§2) Cells were plated in all wells of a tissue-culture treated, 96-well plate at a final count of 5000 cells/well in 100 μL of the appropriate culture media. The cells were cultured for 24 hours after plating at 37° C. in the presence of 5% CO2.
(§3) After 24 hours, complexes containing siNA and RNAiMax were created as follows: A solution of RNAiMax diluted 33-fold in OPTI-MEM was prepared. In parallel, solutions of the siNAs for testing were prepared to a final concentration of 120 nM in OPTI-MEM. After incubation of RNAiMax/OPTI-MEM solution at room temperature for 5 min, an equal volume of the siNA solution and the RNAiMax solution were added together for each of the siNAs.
(§4) This solution was incubated at room temperature for 20 minutes. After incubation, 20 uL of the solution was added to each of the relevant wells. The final concentration of siNA in each well was 10 nM and the final volume of RNAiMax in each well was 0.3 ul.
(§5) The time of incubation with the RNAiMax-siNA complexes was 24 hours and there was no change in media between transfection and harvesting, unless otherwise indicated.
(§6) RNA was extracted from a 96-well plate using the TaqMan® Gene Expression Cells-to-CT™ Kit (Cat# 4399002) with a modified protocol. Briefly, a 60 uL (1 plate) or 110 uL (2 plates) of the Lysis Solution with DNase I was dispensed into each well of the Lysis Buffer Plate (twin.tec full skirt plate). The lysis buffer and stop plates were stored at 4° C. until the cells were washed.
(§7) The culture medium was aspirated and discarded from the wells of the culture plate. 50 uL of chilled DPBS was added to each well, then aspirated and discarded. The lysis was performed automatically using a BioMek FX instrument and method. After the Biomek method was completed, the lysis plate was incubated for 2 min at room temperature. The lysis plate can be stored for 2 hours at 4° C., or at −20° C. or −80° C. for two months.
(§8) Each well of the reverse transcription plate required 10 uL of 2× reverse transcriptase Buffer, 1 uL of 20× reverse transcription enzyme and 2 uL of nuclease-free water. The reverse transcription master mix was prepared by mixing 2× reverse transcription buffer, 20× reverse transcription enzyme mix, and nuclease-free water. 13 uL of the reverse transcription master mix was dispensed into each well of the reverse transcription plate (semi-skirted). A separate reverse transcription plate was prepared for each cell plate. The plate was loaded onto a Biomek NX or Biomek FX Dual-96 and the Biomek method was run. The program is programmed to automatically added 7 uL of lysate from the cell lysis procedure described above into each well of the reverse transcription plate. The plate is sealed and spun on a centrifuge (1000 rpm for 30 seconds) to settle the contents to the bottom of the reverse transcription plate. The plate is placed in a thermocycler at 37° C. for 60 min, 95° C. for 5 min, and 4° C. until the plate is removed from the thermocycler. Upon removal, if not used immediately, the plate was frozen at −20° C.
as §1
The assays were performed on an ABI 7900 instrument, according to the manufacturer's instructions. […]

STAT1 human mRNA = assay: Initial screen of siNAs: STAT1 mRNA knock-down in A549 cells (96-well transfection, Taqman RT-PCR); type: cell-based; conditions: 10 nM siNA, 24 hrs, normalized against GAPDH, average of 2 experiments
Protocol: A549 (human; ATCC cat# CCL-185): Cells were cultured at 37° C. in the presence of 5% CO2 and grown in Ham's F12K medium with 2 mM L-glutamine adjusted to contain 1.5 g/L sodium bicarbonate and supplemented with fetal bovine serum at a final concentration of 10% and 100 μg/mL of streptomycin and 100 U/mL penicillin.
as §2, §3, §4, §5, §6, §7, §8, §1
The assays were performed on an ABI 7900 instrument, according to the manufacturer's instructions.
Within each experiment, the baseline was set in the exponential phase of the amplification curve, and based on the intersection point of the baselines with the amplification curve, a Ct value was assigned by the instrument. […]

STAT1 mRNA = STAT1 mRNA level at 24, 48 and 72 hours post-transfection in A549 cells; type: cell-based, human; conditions: STAT1 mRNA remaining vs control, A549, 30 nM; for mRNA 24 hr: 24 hr post-transfection; for mRNA 48 hr: 48 hr post-transfection; for mRNA 72 hr: 72 hr post-transfection
Protocol: A549 cells were plated in 6-well plates at final counts of 70,000 cells/well in 2 ml of complete growth media (Ham's F12, Cellgro Cat# 10-080-CV+10% FBS). Transfection was performed using 2.5 uL of RNAiMax (Invitrogen Cat# 13778-150) per well. Final concentration of siNAs was 30, 3, 0.3, 0.03, 0.003, and 0.0003 nM done in duplicate. The siNAs were incubated for 24-72 hours. The duplicate samples were pooled to prepare protein lysates and RNA using the “PARIS” Protein and RNA Isolation System from Ambion, Cat# 1921. The total protein in the lysates was measured using a Bradford Dye Reagent (Bio-Rad, Cat# 500-0205).SDS-PAGE/Western Blotting was performed on the on the protein samples and RT-PCR on the RNA samples.
as §1
An assessment of the level of mRNA at each timepoint was also made and protein samples from the treated cells were used in Western blots with an α-STAT1 antibody. (Clontech, Cat# 610185) and anti-Tubulin Ab (Sigma # T6199) in human A549 cells. Cells were transfected 24, 48 or 72 hours before harvesting total protein and the final concentration of siNAs was 30 nM. Lanes were loaded with 10 ug of total protein. Quantification was done of both the STAT1α and the STAT1β proteins together. All the siNAs tested reduced STAT1 protein at each of the tested timepoints, with the highest degree of protein reduction being observed at 72 hours post-transfection.

Row | Substance | STAT3 % KD at 1 nM (STAT3 mRNA) [%] | % KD Mouse (STAT1 mouse mRNA) [%] | % KD Human (STAT1 human mRNA) [%] | mRNA 24 hr (STAT1 mRNA) [%] | mRNA 48 hr (STAT1 mRNA) [%] | mRNA 72 hr (STAT1 mRNA) [%]
1 | 25369-DC: STAT1 siNA duplex, human target site 602; modified strands SEQ ID NO: 75 and 76 (chain 1 GGAAAAGCAAGCGUAAUCUTT; chain 2 AGAUUACGCUUGCUUUUCCUU; chain 1: DNA at AGT, 2'-fluoro at CU, [invAb] at 5' end, 3' end, backbone not given here; chain 2: sugars from the 5' end rrrffmfmfffmfffffffmm, backbone not given here) | −2 | 66 | 92 | 8 | 7 | 14
2 | 25351-DC: STAT1 siNA duplex, human target site 2249; modified strands SEQ ID NO: 39 and 40 (chain 1 CCUACACGAAGAAAGAACUTT; chain 2 AGUUCUUUCUUCGUGUAGGUU; chain 1: DNA at AGT, 2'-fluoro at CU, [invAb] at 5' end, 3' end, backbone not given here; chain 2: sugars from the 5' end rrrfffffffffmfmfmmmmm, backbone not given here) | 8 | 82 | 90 | 3 | 2 | 2
3 | 25372-DC: STAT1 siNA duplex, human target site 968; modified strands SEQ ID NO: 81 and 82 (chain 1 UUGACAAUAAGAGAAAGGATT; chain 2 UCCUUUCUCUUAUUGUCAAUU; chain 1: DNA at AGT, 2'-fluoro at CU, [invAb] at 5' end, 3' end, backbone not given here; chain 2: sugars from the 5' end rrrffffffffmffmffmmmm, backbone not given here) | 3 | 81 | 92 | 4 | 3 | 3
4 | 25368-DC: STAT1 siNA duplex, human target site 782; modified strands SEQ ID NO: 73 and 74 (chain 1 GUAAAGUCAGAAAUGUGAATT; chain 2 UUCACAUUUCUGACUUUACUU; chain 1: DNA at AGT, 2'-fluoro at CU, [invAb] at 5' end, 3' end, backbone not given here; chain 2: sugars from the 5' end rrrmfmfffffmmffffmfmm, backbone not given here) | −2 | 87 | 91 | 3 | 3 | 3
5 | 25367-DC: STAT1 siNA duplex, human target site 966; modified strands SEQ ID NO: 71 and 72 (chain 1 GCUUGACAAUAAGAGAAAGTT; chain 2 CUUUCUCUUAUUGUCAAGCUU; chain 1: DNA at AGT, 2'-fluoro at CU, [invAb] at 5' end, 3' end, backbone not given here; chain 2: sugars from the 5' end rrrffffffmffmffmmmfmm, backbone not given here) | 12 | 82 | 91 | 3 | 2 | 2
